Test results taken from US10058549B2, “Imidazo[1,2-α]pyridine derivatives as modulators of the 5-HT2A serotonin receptor useful for the treatment of disorders related thereto” (Arena Pharmaceuticals, Inc., priority 2007, dated 2018).

Experiments:
healthy adults = test: Phase 1 trials, waking EEG; type: in vivo, human
normal volunteers = test: Afternoon nap model of insomnia in normal volunteers; type: in vivo, human
diabetic rats = conditions: 19.8% deficit in diabetic rats; cited from earlier work
[1] = test system: DOI-induced hypolocomotion in rats; test: Attenuation of DOI-induced hypolocomotion in rats; type: in vivo, rat; conditions: compound 1-10 mg/kg p.o., DOI 1 mg/kg s.c.
Description: In this example, compounds of the invention were tested for inverse agonist activity by determining whether these compounds could attenuate DOI-induced hypolocomotion in rats in a novel environment. DOI is a potent 5-HT2A/2C receptor agonist that crosses the blood-brain barrier. The standard protocol used is described briefly below.
Male Sprague-Dawley rats weighing between 200-350 g were used for all tests. Rats were housed three to four per cage.
(R)-DOI HCl (C11H16INO2.HCl) was obtained from Sigma-Aldrich and was dissolved in 0.9% saline. Compounds of the invention were synthesized at Arena Pharmaceuticals Inc., San Diego, Calif. and were dissolved in 100% PEG400. DOI was injected s.c. in a volume of 1 mL/kg, while compounds of the invention were administered p.o. in a volume of 1 mL/kg.
The “Motor Monitor” (Hamilton-Kinder, Poway, Calif.) was used for all activity measurement. This apparatus recorded rears using infrared photobeams. […]
In determining the effects of compounds of the invention on DOI-induced hypoactivity, animals were first injected with vehicle or the compound of the invention (1-10 mg/kg) in their home cages. […] Ten minutes after DOI administration, animals were placed into the activity apparatus and rearing activity was measured for 10 min.
Results (total rears over 10 min) were analyzed by t-test. […]

JC virus = conditions: human glial cells; cited from earlier work
heatstroke = conditions: during heatstroke; cited from earlier work
[2] = test system: diabetic nephropathy patients; conditions: 24 months of treatment; cited from earlier work
[3] = test system: thermal induced pain in rats; conditions: intraperitoneal administration; cited from earlier work
[4] = test system: inflammatory pain in rats; conditions: intrathecal or intraperitoneal administration; cited from earlier work
humans = conditions: lumbar disc herniation; cited from earlier work

COc1ccc(NC(=O)Nc2ccc(F)cc2F)cc1-c1c(Br)cnn1C [APD125]
effect on waking EEG (healthy adults): vigilance-lowering effects | dose of maximal vigilance-lowering effects (healthy adults; waking EEG): 40 to 80 mg | time of peak effects after dosing (healthy adults; waking EEG): 2 to 4 h | microarousals, number of sleep stage shifts and number of awakenings after sleep onset (normal volunteers; human, in vivo): decreased | sleep onset latency (normal volunteers; human, in vivo): not decreased | slow wave sleep and associated parameters (normal volunteers; primarily during the early part of sleep): increased slow wave sleep and associated parameters in a dose-dependent manner

O=CN1CCC(C(=O)NCCN2CCC(=C3c4ccccc4C=Cc4ccccc43)CC2)CC1 [AT-1015]
correction of sciatic motor conduction deficit (diabetic rats): 82.6-99.7%

O=C(c1cccn2ccnc12)N1CCN(CCc2ccccc2F)CC1 [Compound 18, (4-(2-Fluorophenethyl)piperazin-1-yl)(imidazo[1,2-a]pyridin-8-yl)methanone]
attenuation of DOI-induced hypolocomotion (total rears over 10 min) [1]: attenuated DOI-induced hypolocomotion

O=C(c1cccn2ccnc12)N1CCN(CCc2ccc(Cl)cc2Cl)CC1 [Compound 19, (4-(2,4-Dichlorophenethyl)piperazin-1-yl)(imidazo[1,2-a]pyridin-8-yl)methanone]
attenuation of DOI-induced hypolocomotion (total rears over 10 min) [1]: attenuated DOI-induced hypolocomotion

O=C(c1ccc(F)cc1)C1CCN(CCn2c(=O)[nH]c3ccccc3c2=O)CC1 [ketanserin]
JC virus infection (JC virus): inhibited | protection against circulatory shocks, intracranial hypertension and cerebral ischemia (heatstroke): protect against circulatory shocks, intracranial hypertension and cerebral ischemia

Cc1nc2sccn2c(=O)c1CCN1CCC(=C(c2ccc(F)cc2)c2ccc(F)cc2)CC1 [ritanserin]
JC virus infection (JC virus): inhibited | correction of sciatic motor conduction deficit (diabetic rats): 82.6-99.7%

COc1cccc(CCc2ccccc2OCC(CN(C)C)OC(=O)CCC(=O)O)c1 (stereo not drawn) [sarpogrelate]
urinary albumin excretion level [2]: significantly reduced | analgesic effect on thermal induced pain [3]: significant analgesic effect | analgesic effect on inflammatory pain [4]: significant analgesic effect | treatment of lower back pain, leg pain and numbness associated with sciatica (humans): effective treatment | correction of sciatic motor conduction deficit (diabetic rats): 82.6-99.7%
